Measured values as given in patent US11986471B2, “Compounds and methods of use” (Tango Therapeutics, Inc., priority 2018, dated 2024).

Key:
[1] = target: T1, PRMT5 (Homo sapiens, UniProt O14744); assay: PRMT5 IC50 assay with no cofactor; assay type: biochemical
T1 construct: purchased Viva (custom protein)
Summary of the method: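 Cofactor-free, SAM and MTA formats; IC50 μM; Ki = IC50/1.5 for SAM, IC50/13.5 for MTA.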

[2] = target: T1, PRMT5; assay: PRMT5 IC50 assay in the presence of SAM as cofactor; assay type: biochemical
Summary of the method: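 Human PRMT5 inhibition, IC50 in μM; cofactor varied (SAM / MTA / none).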

[3] = target: T1, PRMT5; assay: PRMT5 IC50 assay in the presence of MTA as cofactor; assay type: biochemical; settings: for IC50: PRMT5, MTA as cofactor
Summary of the method: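 For the SAM-containing format, dividing IC50 by 1.5 yields Ki; for the MTA-containing format the divisor is 13.5. A third format without cofactor gives IC50 alone.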

[4] = system: HAP1 MTAP-intact; assay: SDMA in-cell western assay, HAP1 MTAP-intact cell line; assay type: cell-based; settings: Homo sapiens
Summary of the method: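 Potency reflects cellular SDMA reduction, detected by in-cell western, in HAP1 cells with or without MTAP (endogenous expression versus null).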

[5] = system: HAP1 MTAP-deleted; assay: SDMA in-cell western assay, HAP1 MTAP-deleted cell line; assay type: cell-based; settings: for IC50: Homo sapiens, HAP1 MTAP-deleted cell line; for MTAP Intact/Deleted Ratio: IC50 ratio HAP1 MTAP-intact / HAP1 MTAP-deleted
Summary of the method: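 These are IC50 values from an in-cell western measuring SDMA. The HAP1 cells used carry no MTAP, in contrast to the isogenic partner line with endogenous MTAP expression.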

[6] = ratio between Ki in the presence of SAM and Ki in the presence of MTA
[7] = ratio between the Ki in the presence of SAM and the Ki in the presence of MTA

T1 sequence (O14744 whole entry): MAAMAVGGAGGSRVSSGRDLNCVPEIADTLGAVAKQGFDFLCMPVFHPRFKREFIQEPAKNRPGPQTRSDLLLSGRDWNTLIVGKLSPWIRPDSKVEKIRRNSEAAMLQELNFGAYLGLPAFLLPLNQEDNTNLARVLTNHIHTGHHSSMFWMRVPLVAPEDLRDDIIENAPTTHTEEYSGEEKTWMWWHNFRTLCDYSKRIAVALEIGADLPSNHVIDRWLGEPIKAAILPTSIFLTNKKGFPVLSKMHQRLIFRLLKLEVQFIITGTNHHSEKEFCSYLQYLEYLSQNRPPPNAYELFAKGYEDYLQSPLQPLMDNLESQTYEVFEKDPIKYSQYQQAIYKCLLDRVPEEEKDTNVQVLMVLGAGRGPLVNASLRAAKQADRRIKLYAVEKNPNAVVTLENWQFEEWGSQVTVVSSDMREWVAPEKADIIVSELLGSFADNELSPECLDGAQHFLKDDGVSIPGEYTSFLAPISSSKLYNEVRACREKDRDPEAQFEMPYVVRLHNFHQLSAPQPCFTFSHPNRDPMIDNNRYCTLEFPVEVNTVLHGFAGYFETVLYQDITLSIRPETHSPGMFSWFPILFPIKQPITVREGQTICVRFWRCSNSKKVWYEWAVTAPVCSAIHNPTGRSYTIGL
T1 sequence (Q9BQA1 whole entry partner): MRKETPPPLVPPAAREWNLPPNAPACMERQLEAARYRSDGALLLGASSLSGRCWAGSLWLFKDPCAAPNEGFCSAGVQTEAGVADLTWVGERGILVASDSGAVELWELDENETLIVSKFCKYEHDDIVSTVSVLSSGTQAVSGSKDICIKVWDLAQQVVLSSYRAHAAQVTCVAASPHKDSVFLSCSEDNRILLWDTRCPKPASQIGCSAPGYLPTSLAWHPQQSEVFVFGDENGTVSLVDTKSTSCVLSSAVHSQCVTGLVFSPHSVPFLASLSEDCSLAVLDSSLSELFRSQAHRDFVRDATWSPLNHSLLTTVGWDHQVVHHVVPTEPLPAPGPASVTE

| Compound | IC50 ([1]; read-out: No Co-factor IC50) [µM] | IC50 [2] [µM] | IC50 [3] [µM] | SAM/MTA Ratio [3, 6] | IC50 [4] [µM] | IC50 [5] [µM] | MTAP Intact/Deleted Ratio [5] | IC50 [1] [µM] | SAM/MTA Ratio [3, 7] |
| --- | --- | --- | --- | --- | --- | --- | --- | --- | --- |
| CC(=O)N1CC[C@H](Nc2cc(C(=O)NC[C@H](O)CN3CCc4cc(OCc5ocnc5C)ccc4C3)ncn2)C[C@H]1C (mixture of isomers) [Compound 626, 6-{[(2RS,4SR)-1-acetyl-2-methylpiperidin-4-yl]amino}-N-[(2S)-2-hydroxy-3-{6-[(4-methyl-1,3-oxazol-5-yl)methoxy]-1,2,3,4-tetrahydroisoquinolin-2-yl}propyl]pyrimidine-4-carboxamide] | 0.5 to 5 | 0.05 to 0.5 | 0.05 to 0.5 | A (a Ki ratio greater than or equal to 10 fold between the Ki in the presence of SAM and the Ki in the presence of MTA) | 1 to 10 | < 1 | B* (an IC50 ratio greater than or equal to 3 fold but lower than 10 fold between the IC50 in the HAP1 MTAP-intact cell line and the HAP1 MTAP-deleted cell line) | – | – |
| O=C(NC[C@H](O)CN1CCc2cc(OCc3cnco3)ccc2C1)c1cc(NC2CCC2)nc(N2CCN(C(=O)C3CC3)CC2)c1 [Compound 378, (S)-2-(cyclobutylamino)-6-(4-(cyclopropanecarbonyl)piperazin-1-yl)-N-(2-hydroxy-3-(6-(oxazol-5-ylmethoxy)-3N-dihydroisoquinolin-2(1H)-yl)propyl)isonicotinamide] | 0.5 to 5 | 0.05 to 0.5 | 0.05 to 0.5 | A (a Ki ratio greater than or equal to 10 fold between the Ki in the presence of SAM and the Ki in the presence of MTA) | < 1 | < 1 | C* (an IC50 ratio of less than 3 fold between the IC50 in the HAP1 MTAP-intact cell line and the HAP1 MTAP-deleted cell line) | – | – |
| O=C(NC[C@H](O)CN1CCc2nc(OCc3cnco3)ccc2C1)c1ccnc(NC2CCC2)c1 [Compound 413, 2-(cyclobutylamino)-N-[(2S)-2-hydroxy-3-[2-(oxazol-5-ylmethoxy)-7,8-dihydro-5H-1,6-naphthyridin-6-yl]propyl]pyridine-4-carboxamide] | ≥ 5 | 0.5 to 5 | 0.5 to 5 | A (a Ki ratio greater than or equal to 10 fold between the Ki in the presence of SAM and the Ki in the presence of MTA) | ≥ 10 | ≥ 10 | C* (an IC50 ratio of less than 3 fold between the IC50 in the HAP1 MTAP-intact cell line and the HAP1 MTAP-deleted cell line) | – | – |
| CC(=O)N1CCC(Nc2cc(C(=O)NC[C@H](O)CN3CCc4cc(OCc5ocnc5C)ccc4C3)cc(N3CCN(C)CC3)n2)CC1 [Compound 584, 2-[(1-acetylpiperidin-4-yl)amino]-N-[(2S)-2-hydroxy-3-{6-[(4-methyl-1,3-oxazol-5-yl)methoxy]-1,2,3,4-tetrahydroisoquinolin-2-yl}propyl]-6-(4-methylpiperazin-1-yl)pyridine-4-carboxamide] | – | 0.05 to 0.5 | 0.05 to 0.5 | – | ≥ 10 | 1 to 10 | B* (an IC50 ratio greater than or equal to 3 fold but lower than 10 fold between the IC50 in the HAP1 MTAP-intact cell line and the HAP1 MTAP-deleted cell line) | 0.05 to 0.5 | A (a Ki ratio greater than or equal to 10 fold between the Ki in the presence of SAM and the Ki in the presence of MTA) |
| Cc1ncoc1COc1cc2c(cc1F)CN(C[C@@H](O)CNC(=O)c1ccc3c(c1)CCN(C(=O)c1ccc(Br)cc1)C3)CC2 [Compound 578, 2-(4-bromobenzoyl)-N-[(2S)-3-[7-fluoro-6-[(4-methyloxazol-5-yl)methoxy]-3,4-dihydro-1H-isoquinolin-2-yl]-2-hydroxy-propyl]-3,4-dihydro-1H-isoquinoline-6-carboxamide] | – | 0.05 to 0.5 | 0.05 to 0.5 | – | 1 to 10 | 1 to 10 | B* (an IC50 ratio greater than or equal to 3 fold but lower than 10 fold between the IC50 in the HAP1 MTAP-intact cell line and the HAP1 MTAP-deleted cell line) | 0.5 to 5 | A (a Ki ratio greater than or equal to 10 fold between the Ki in the presence of SAM and the Ki in the presence of MTA) |
| CCN1CCN(c2nc(NC3COC3)cc(C(=O)NC[C@H](O)CN3CCc4cc(OCc5cnco5)ccc4C3)n2)CC1 [Compound 353] | 0.5 to 5 | 0.05 to 0.5 | 0.05 to 0.5 | A (a Ki ratio greater than or equal to 10 fold between the Ki in the presence of SAM and the Ki in the presence of MTA) | 1 to 10 | 1 to 10 | C* (an IC50 ratio of less than 3 fold between the IC50 in the HAP1 MTAP-intact cell line and the HAP1 MTAP-deleted cell line) | – | – |
| O=C(NC[C@H](O)CN1CCc2cc(OCc3cnco3)ccc2C1)c1ccc(OC2CCN(Cc3ccncc3)CC2)cc1 [Compound 328] | 0.5 to 5 | 0.05 to 0.5 | 0.05 to 0.5 | A (a Ki ratio greater than or equal to 10 fold between the Ki in the presence of SAM and the Ki in the presence of MTA) | 1 to 10 | < 1 | C* (an IC50 ratio of less than 3 fold between the IC50 in the HAP1 MTAP-intact cell line and the HAP1 MTAP-deleted cell line) | – | – |
| Cc1c(OCc2cnco2)ccc2c1CCN(C[C@@H](O)CNC(=O)c1ccnc(NC3CC4CCCC43)c1)C2 (stereo partly drawn) [Compound 486, 2-(bicyclo[3.2.0]heptan-6-ylamino)-N—((S)-2-hydroxy-3-(5-methyl-6-(oxazol-5-ylmethoxy)-3,4-dihydroisoquinolin-2(1H)-yl)propyl)isonicotinamide] | – | 0.05 to 0.5 | 0.05 to 0.5 | – | ≥ 10 | 1 to 10 | C* (an IC50 ratio of less than 3 fold between the IC50 in the HAP1 MTAP-intact cell line and the HAP1 MTAP-deleted cell line) | ≥ 5 | A (a Ki ratio greater than or equal to 10 fold between the Ki in the presence of SAM and the Ki in the presence of MTA) |
| CN(C)CCOc1cc(C(=O)NC[C@H](O)CN2CCc3cc(OCc4cnco4)ccc3C2)cc(NC2CCC2)n1 [Compound 315, (S)-2-(cyclobutylamino)-6-(2-(dimethylamino)ethoxy)-N-(2-hydroxy-3-(6-(oxazol-5-ylmethoxy)-3,4-dihydroisoquinolin-2(1H)-yl)propyl)isonicotinamide] | 0.5 to 5 | 0.05 to 0.5 | < 0.05 | A (a Ki ratio greater than or equal to 10 fold between the Ki in the presence of SAM and the Ki in the presence of MTA) | 1 to 10 | < 1 | C* (an IC50 ratio of less than 3 fold between the IC50 in the HAP1 MTAP-intact cell line and the HAP1 MTAP-deleted cell line) | – | – |
| Cc1ncoc1COc1ccc2c(c1Br)CCN(C[C@@H](O)CNC(=O)c1cc(NC3CCC3)ncn1)C2 [Compound 338, (S)—N-(3-(5-bromo-6-((4-methyloxazol-5-yl)methoxy)-3,4-dihydroisoquinolin-2(1H)-yl)-2-hydroxypropyl)-6-(cyclobutylamino)pyrimidine-4-carboxamide] | ≥ 5 | 0.5 to 5 | 0.5 to 5 | A (a Ki ratio greater than or equal to 10 fold between the Ki in the presence of SAM and the Ki in the presence of MTA) | ≥ 10 | ≥ 10 | C* (an IC50 ratio of less than 3 fold between the IC50 in the HAP1 MTAP-intact cell line and the HAP1 MTAP-deleted cell line) | – | – |
| CC(C)CC(=O)N1CC(Nc2cc(C(=O)NC[C@H](O)CN3CCc4cc(OCc5cnco5)ccc4C3)ccn2)C1 [Compound 474, N-[(2S)-2-hydroxy-3-[6-(oxazol-5-ylmethoxy)-3,4-dihydro-1H-isoquinolin-2-yl]propyl]-2-[[1-(3-methylbutanoyl)azetidin-3-yl]amino]pyridine-4-carboxamide] | – | 0.05 to 0.5 | 0.05 to 0.5 | – | 1 to 10 | 1 to 10 | B* (an IC50 ratio greater than or equal to 3 fold but lower than 10 fold between the IC50 in the HAP1 MTAP-intact cell line and the HAP1 MTAP-deleted cell line) | ≥ 5 | A (a Ki ratio greater than or equal to 10 fold between the Ki in the presence of SAM and the Ki in the presence of MTA) |
| O=C(NC[C@H](O)CN1CCc2c(ccc(OCc3cnco3)c2Cl)C1)c1cccc(NC2CCC2)c1 [Compound 335, (S)—N-(3-(5-chloro-6-(oxazol-5-ylmethoxy)-3,4-dihydroisoquinolin-2(1H)-yl)-2-hydroxypropyl)-3-(cyclobutylamino)benzamide] | ≥ 5 | 0.5 to 5 | 0.5 to 5 | A (a Ki ratio greater than or equal to 10 fold between the Ki in the presence of SAM and the Ki in the presence of MTA) | ≥ 10 | ≥ 10 | C* (an IC50 ratio of less than 3 fold between the IC50 in the HAP1 MTAP-intact cell line and the HAP1 MTAP-deleted cell line) | – | – |
